Measurements taken from patent US20160038519A1, “ADMINISTRATION OF KARENITECIN FOR THE TREATMENT OF ADVANCED OVARIAN CANCER, INCLUDING CHEMOTHERAPY-RESISTANT AND/OR THE MUCINOUS ADENOCARCINOMA SUB-TYPES” (BioNumerik Pharmaceuticals, Inc., priority 2014, published 2016).
Entries after “also recorded” stand apart in the source; their conditions may differ. Like-named read-outs stand apart in the source and are kept apart here.

Legend:
beagle dogs = settings: dog, in vivo, iv
[1] = Phase I clinical studies of intravenous Karenitecin; type: in vivo, human
Method: Results from three Phase I studies indicate that Karenitecin can be safely administered to subjects at the dose level of 1.0 mg/m^2/day i.v. over a one hour period of time for 5 consecutive days in a 3-week treatment cycle. […] Any gastrointestinal toxicity is generally ≦grade 2 and is not dose-limiting.
Intravenous administration of Karenitecin has been evaluated in three Phase I clinical studies in subjects with the following cancer types: (i) advanced solid tumors (adult subjects) (see, e.g., Schilsky, R. L., Hausheer, F. H., et al., Phase I trial of karenitecin administered intravenously daily for five consecutive days in subjects with advanced solid tumors using accelerated dose titration [abstract]. ASCO Abstract 758 (2000)); (ii) refractory or recurrent solid tumors (pediatric subjects); and (iii) recurrent malignant glioma (adult subjects). Intravenous administration of Karenitecin has also been evaluated in four Phase 2 clinical studies in adult subjects with the following cancer types: (i) primary malignant glioma; (ii) third-line treatment of persistent or recurrent epithelial ovarian or primary peritoneal carcinoma; (iii) malignant melanoma (see, e.g., Hausheer, F. H., et al., Phase II trial of Karenitecin (BNP1350) in malignant melanoma: clinical and translational study [abstract]. ASCO Abstract 7554 (2004); and (iv) relapsed or refractory non-small cell lung cancer (see, e.g., Miller, A. A., et al., MR for the Cancer and Leukemia Group B. Phase II trial of karenitecin in subjects with relapsed or refractory non-small cell lung cancer (CALGB 30004) Lung Cancer 48:399-407 (2005)).

OMC3 Cell Line = assay: SRB cytotoxicity assay, OMC3; type: cell-based, human; settings: Homo sapiens
Method: (§1) In vitro studies were conducted in human mucinous ovarian cancer cell lines including JHOM2B, OMC3, and COV644. In one series of experiments, the dose response curves for BNP1350 (also known as Karenitecin), SN-38 (Irinotecan), and Topotecan were obtained and IC50 values were determined. In a second series of experiments, the effect of BNP7787 (2,2′-dithio-bis-ethane sulfonate; Tavocept) on BNP1350-induced cytotoxicity at selected BNP1350 concentrations was examined.
(§2) The JHOM2B and OMC3 cell lines were purchased from Riken Cell Bank (Japan). The COV644 cell line was purchased from SigmaAldrich. Cells were maintained as monolayered cultures in T-75 flasks and then seeded to microtiter plate wells for experiments. Population doubling-times for these three cell lines were long (i.e., exceeding 40 hours, and for some of the cell lines approaching 96 hours); therefore, the Applicants conducted initial pilot experiments and determined optimal seeding density to obtain A570 values in untreated controls that would fall within the linear range of the SRB assay after seven (7) total days of cell growth. JHOM2B cells were cultured in DMEM:F12 (1:1)+0.1 mM non-essential amino acids (NEAA)+10% FBS and were seeded at 6,000 cells per well. OMC3 cells were cultured in HamF12+10% FBS and were seeded at 8,000 cells per well. COV644 cells were cultured in DMEM+2 mM glutamine+10% FBS and were seeded at 6,000 cells per well.
(§3) The cells were manipulated in a Microzone laminar flow hood traditionally used for maintaining aseptic environments around automated instrumentation such as microplate robots, and the like. Cells were grown and maintained at 37° C. in a humidified atmosphere containing 5% CO2 in a water jacketed cell culture incubator (Forma Scientific). Cells were counted using a ViCell counter (Beckman-Coulter). An automated plate washer/stacker (ELx405/BioStak from BioTek Instruments) and a microplate reader (SpectraMax Plus from Molecular Devices) were used for conducting the SRB assay and determining A570 values for wells in the plates and the percentage of control values. Prior to SRB assays, cell viability was monitored by evaluation of microtiter plate wells. Dead cells detach and float while living cells remain attached to the bottom of the cell well.
(§4) SN-38 (Irinotecan; Sigma H0165, lot MKBQ4981) and Topotecan (Sigma T2705, lot 052M4728V) were purchased from SigmaAldrich. BNP1350 (lot KN-C192-135) and BNP7787 (lot 205001) were synthesized at BioNumerik Pharmaceuticals, Inc. (San Antonio, Tex.). BNP1350, SN38, and Topotecan were prepared as 2.5, 2.5, and 25 mM stocks in DMSO (ATCC, cell culture grade).
(§5) The sulforhodamine B (SRB) cytotoxicity assay was used to assess cell survival. Briefly, after the medium was decanted from individual plate wells, trichloroacetic acid (100 μL of 10.0 percent solution) was added to each well, and the plates were incubated at 4° C. for 1 hour. The plates were washed five times with water using an automated microplate washer (Model ELx405, Bio-Tek Instruments), SRB solution (100 μL of 0.4% SRB dissolved in 1.0 percent acetic acid) was added, and plates remained at room temperature for 15 minutes. The plates were then washed five times using acetic acid (1.0 percent), air dried, and bound dye was solubilized in Tris base (150 μL, 10 mM). Plates were agitated (gently) for 5 minutes and the absorbance values of the SRB dye-protein adduct at 570 nanometers (A570) were determined using an automated microtiter plate reader (SpectraMax Plus, Molecular Devices). IC50 values were extrapolated from dose response curves of the data using OriginLab Software.

COV644 Cell Line = assay: SRB cytotoxicity assay, COV644; type: cell-based, human
Method: as §1, §2, §3, §4, §5
The 1050 values exceeded the solubility in medium for each compound—the limit of solubility in cell culture medium for the compounds were as follows: 2 micromolar for BNP1350 and SN38, and 20 micromolar for Topotecan. Cells were treated for periods of 2.5 hours or 6 hours and, in each case, the […] values were not reached. Longer treatments were not performed.

For CC[C@@]1(O)C(=O)OCc2c1cc1n(c2=O)Cc2c-1nc1ccccc1c2CC[Si](C)(C)C [Karenitecin, (4S)-4-ethyl-4-hydroxy-11-[2-(trimethylsilyl)ethyl]-1H-pyrano[3′:4′:6,7]indolizino[1,2-b]quinoline-3,14(4H,12H)-dione], the Toxicities observed (beagle dogs) was “reversible myelosuppression (predominantly neutropenia)”, the Gastrointestinal toxicity grade ([1]; i.v. 1.0 mg/m^2/day x5, 3-week cycle, not dose-limiting) was ≤ 2 grade and the Dose-limiting toxicity ([1]; i.v., Phase I clinical studies) was “non-cumulative, reversible myelosuppression; also recorded: reversible and non-cumulative neutropenia and thrombocytopenia”. The “Hypersensitivity reactions reported by subjects” value ([1]; to date) was “no hypersensitivity reactions”, the IC50 (OMC3 Cell Line; 2 hour drug exposure, average of Test 1 and Test 2, read-out: IC50, Average) was 0.0495 µM and the IC50 (OMC3 Cell Line; 2 hour drug exposure, read-out: IC50, Test 1 (2 replicate plates)) was 0.057 ± 0.004 µM. For the same compound, the IC50 (OMC3 Cell Line; 2 hour drug exposure, read-out: IC50, Test 2 (3 replicate plates)) was 0.042 ± 0.006 µM, the IC50 (OMC3 Cell Line; read-out: IC50 values) was 0.0495 µM and the IC50 (COV644 Cell Line; Homo sapiens, 2, 5, and 6 hour drug exposures, did not reach 50% of Control, read-out: IC50, Test 1 (2 replicate plates)) was > 2 µM. For the same compound, the IC50 (COV644 Cell Line; Homo sapiens, 2, 5, and 6 hour drug exposures, did not reach 50% of Control, read-out: IC50, Test 2 (2 to 3 replicate plates)) was > 2 µM, the IC50 (COV644 Cell Line; Homo sapiens, 2, 5, and 6 hour drug exposures, read-out: IC50, Average) was > 2 µM and the IC50 (COV644 Cell Line; Homo sapiens, read-out: IC50 values) was > 2 µM.
